Among the data in BindingDB's records for doi:10.1021/jm00107a048 (Roche Research Center, 1991) are IC50 values, retold here.

Each structure is given as a SMILES string.

The test has as its target Platelet-activating factor receptor (Canis lupus familiaris). The test can be described thus: PAF-antagonist activity determined in dog platelets by PAF-binding assay.
By IC50 is commonly meant the concentration that inhibits the measured activity by half. Take `Cc1nnc2n1-c1sc(C#CCn3c(=O)c4ccccc4c4ccccc43)cc1C(c1ccccc1Cl)NC2=O` (stereo not given): the IC50 stood at 560 nM. The value for `Cc1nnc2n1-c1sc(C#CCOc3cccnc3)cc1C(c1ccccc1Cl)=NC2` was 4 nM; that for `Cc1nnc2n1-c1ccc(C#CCN3C(=O)c4ccccc4C3=O)cc1C(c1ccccc1F)NC2` (stereo not given) was 110 nM. The value for `Cc1nnc2n1-c1sc(C#CCn3ncc4ccccc43)cc1C(c1ccccc1Cl)=NC2` was 1 nM. Next, `Cc1nnc2n1-c1sc(C#CCn3c4c(c5cc(Cl)ccc53)CCCC4)cc1C(c1ccccc1Cl)=NC2`: 90 nM; `Cc1nnc2n1-c1ccc(C#CCN3C(=O)CCc4ccccc43)cc1C(c1ccccc1F)=N[C@H]2C`: 6 nM; `Cc1nnc2n1-c1sc(I)cc1C(c1ccccc1Cl)=NC2C` (stereo not given): 120 nM. In turn, `Cc1nnc2n1-c1sc(C#CCn3c(=O)c4ccccc4c4ccccc4c3=O)cc1C(c1ccccc1Cl)=NC2` returned an IC50 of 51 nM. The value for `Cc1nnc2n1-c1sc(C#CCN3C(=O)CCc4ccccc43)cc1C(c1ccccc1Cl)=NC2` was 0.2 nM; that for `Cc1nnc2n1-c1sc(C#CCN3C(=O)COc4ccccc43)cc1C(c1ccccc1Cl)=NC2` was 0.7 nM; that for `Cc1nnc2n1-c1sc(C#CCn3c4c(c5cc(Cl)ccc53)CCCCC4)cc1C(c1ccccc1Cl)=NC2` was 70 nM. The value for `Cc1nnc2n1-c1sc(C#CCn3c4c(c5ccccc53)CCCCC4)cc1C(c1ccccc1Cl)=NC2` was 15 nM; that for `Cc1nnc2n1-c1ccc(C#CCOc3cccnc3)cc1C(c1ccccc1Cl)=NC2` was 130 nM.

As for `Cc1nnc2n1-c1sc(C#CCN3C(=O)CCc4ccccc43)cc1C(c1cc(O)ccc1Cl)=NC2`, the half-inhibitory concentration (IC50) stood at 80 nM. The value for `Cc1nnc2n1-c1sc(C#CCN3C(=O)c4cccc5cccc3c45)cc1C(c1ccccc1Cl)=NC2` was 5 nM; that for `Cc1nnc2n1-c1sc(C#CCn3c(=O)c4cc(Cl)ccc4c4ccc(Cl)cc43)cc1C(c1ccccc1Cl)=NC2` was 30 nM. The value for `Cc1nnc2n1-c1sc(I)cc1C(c1cc([N+](=O)[O-])ccc1Cl)=NC2` was 360 nM; that for `Cc1nnc2n1-c1sc(C#CCn3c4c(c5ccccc53)CCCC4)cc1C(c1ccccc1Cl)=NC2` was 7 nM. Next, `O=C1CCc2ccccc2N1CC#Cc1ccc2c(c1)C(c1ccc(Cl)cc1)=NCc1nnc(C(F)(F)F)n1-2`: 1000 nM; `Cc1nnc2n1-c1sc(C#CCN3C(=O)C(=O)c4ccccc43)cc1C(c1ccccc1Cl)=NC2`: 7 nM; `Cc1nnc2n1-c1sc(C#CCn3c(=O)c4ccccc4c4ccccc43)cc1C(c1ccccc1Cl)=NC2O` (stereo not given): 25 nM. The compound `Cc1nnc2n1-c1sc(C#CCn3c(=O)[nH]c4ccccc43)cc1C(c1ccccc1Cl)=NC2` yielded an IC50 of 9 nM. Next, `Cc1nnc2n1-c1sc(C#CCN3C(=O)CCc4cc(Cl)cc(Cl)c43)cc1C(c1ccccc1Cl)=NC2`: 9 nM; `Cc1nnc2n1-c1ccc(I)cc1C(c1ccccc1F)=NC2`: 1000 nM; `Cc1nnc2n1-c1sc(C#CCN3C(=O)Cc4ccccc43)cc1C(c1ccccc1Cl)=NC2`: 3 nM. With `Cc1nnc2n1-c1sc(C#CCn3c(=O)n(C)c(=O)c4ccccc43)cc1C(c1ccccc1Cl)=NC2`, the IC50 was found to be 0.6 nM. The value for `COc1cc2c(cc1OC)C(=O)N(CC#Cc1cc3c(s1)-n1c(C)nnc1CN=C3c1ccccc1Cl)CC2` was 25 nM; that for `Cc1nnc2n1-c1sc(C#CCn3c4ccccc4c4ccccc43)cc1C(c1ccccc1Cl)=NC2` was 120 nM. The value for `Cc1nnc2n1-c1sc(C#CCn3c(=O)n(CCN(C)C)c(=O)c4ccccc43)cc1C(c1ccccc1Cl)=NC2` was 150 nM. The value for `Cc1nnc2n1-c1sc(C#CCn3c(=O)c4ccccc4c4ccccc43)cc1C(c1cc(O)ccc1Cl)=NC2` was 15 nM.

Turning to `Cc1nnc2n1-c1ccc(C#CCN3C(=O)c4ccccc4C3=O)cc1C(c1ccccc1F)=NC2`, the IC50 amounted to 10 nM. Next, `Cc1nnc2n1-c1sc(C#CCN3C(=O)CC(C)(C)c4ccccc43)cc1C(c1ccccc1Cl)=NC2`: 12 nM. Next, `Cc1nnc2n1-c1sc(C#CCN3C(=O)Cn4ccc5c(Cl)ccc3c54)cc1C(c1ccccc1Cl)=NC2`: 15 nM; `Cc1nnc2n1-c1sc(C#CCn3c(=O)c4ccccc4c4ccccc43)cc1C(c1ccccc1Cl)=NC2`: 13 nM; `Cc1nnc2n1-c1sc(C#CCN3C(=O)NCc4ccccc43)cc1C(c1ccccc1Cl)=NC2`: 6 nM. Next, `Cc1nnc2n1-c1ccc(C#CCN3C(=O)CCc4ccccc43)cc1C(c1ccccc1F)=NC2`: 20 nM; `Cc1nnc2n1-c1ccc(C#CCN3C(=O)CCc4ccccc43)cc1C(c1ccc(Cl)cc1)=NC2`: 100 nM; `C=C=Cn1c(=O)n(CC#Cc2cc3c(s2)-n2c(C)nnc2CN=C3c2ccccc2Cl)c2ccccc21`: 6 nM. The compound `Cc1nnc2n1-c1sc(C#CCN3C(=O)COc4ccc(Cl)cc43)cc1C(c1ccccc1Cl)=NC2` gave an IC50 of 5 nM. Next, `Cc1nnc2n1-c1sc(C#CCn3c(=O)n(-c4ccccc4)c4ccccc43)cc1C(c1ccccc1Cl)=NC2`: 1 nM. With `Cc1nnc2nc(-c3ccccc3F)c3cc(C#CCN4C(=O)c5ccccc5C4=O)ccc3n12`, the IC50 was found to be 300 nM. With `Cc1nnc2n1-c1sc(C#CCn3c(=O)n(C)c4ccccc43)cc1C(c1ccccc1Cl)=NC2`, the IC50 came out at 0.3 nM. Next, `Cc1nnc2n1-c1sc(C#CCn3c(=O)n(CCN(C)C)c4ccccc43)cc1C(c1ccccc1Cl)=NC2`: 30 nM; `Cc1nnc2n1-c1sc(C#CCN3C(=O)c4cccc5cccc(c45)C3=O)cc1C(c1ccccc1Cl)=NC2`: 12 nM. Next, `Cc1nnc2n1-c1ccc(I)cc1C(c1ccccc1Cl)=NC2`: 1000 nM; `Cc1nnc2n1-c1sc(C#CCN3C(=O)CCc4ccccc43)cc1C(c1cc([N+](=O)[O-])ccc1Cl)=NC2`: 75 nM. Regarding `Cc1nnc2n1-c1ccc(I)cc1C(c1ccccc1F)NC2` (stereo not given), the IC50 is 1000 nM. Compound `Cc1nnc2n1-c1sc(C#CCn3ccc4ccccc4c3=O)cc1C(c1ccccc1Cl)=NC2` showed an IC50 of 1 nM. The value for `Cc1nnc2n1-c1sc(C#CCN3C(=O)C4(C)CCCc5cccc3c54)cc1C(c1ccccc1Cl)=NC2` (stereo not given) was 12 nM; that for `Cc1nnc2n1-c1sc(C#CCN3Cc4cccc5cccc(c45)C3=O)cc1C(c1ccccc1Cl)=NC2` was 4 nM.

Compound `Cc1nnc2n1-c1sc(C#CCn3c(=O)c4ccccc4c4ccccc43)cc1C(c1ccccc1Cl)=NC2C` (stereo not given) displayed an IC50 of 250 nM. Next, `O=c1c2ccccc2c2ccccc2n1CC#Cc1cc2c(s1)-n1c(CO)nnc1CN=C2c1ccccc1Cl`: 75 nM. Next, `Cc1nnc2n1-c1sc(C#CCC34CCCc5cccc(c53)NC4=O)cc1C(c1ccccc1Cl)=NC2` (stereo not given): 0.7 nM; `O=C1CCc2ccccc2N1CC#Cc1ccc2c(c1)C(c1ccccc1F)=NCc1nnc(C(F)(F)F)n1-2`: 200 nM; `Cc1nnc2n1-c1ccc(C#CCN3C(=O)c4ccccc4C3=O)cc1C(c1ccccc1Cl)=NC2`: 20 nM. In turn, `Cc1nnc2n1-c1sc(C#CCN3C(=O)CCc4ccc(Cl)cc43)cc1C(c1ccccc1Cl)=NC2` returned an IC50 of 7 nM. Next, `CCc1nnc2n1-c1ccc(C#CCN3C(=O)c4ccccc4C3=O)cc1C(c1ccccc1F)=NC2`: 100 nM. The value for `Cc1nnc2n1-c1sc(C#CCn3cnc4ccccc43)cc1C(c1ccccc1Cl)=NC2` was 5 nM. Next, `Cc1nnc2n1-c1sc(C#CCn3c(=O)ccc4ccccc43)cc1C(c1ccccc1Cl)=NC2`: 2 nM. In the case of `O=C1c2ccccc2C(=O)N1CC#Cc1ccc2c(c1)C(c1ccccc1F)=NCc1nncn1-2`, the IC50 was 1000 nM.
